Values of other authors, collected in patent US20120315337A1, “MULTIPARTICULATE 5-HTP COMPOSITIONS AND RELATED METHODS” (priority 2011, published 2012).

Conditions: comparison of antidepressant drug fluoxamine with 5-HTP; background statement

Compound	efficacy in clinical trial
COCCCC/C(=N\OCCN)c1ccc(C(F)(F)F)cc1 [fluoxamine]	equally effective
N[C@@H](Cc1c[nH]c2ccc(O)cc12)C(=O)O [5-HTP, L-5-hydroxytryptophan]	equally effective
